Test results from patent US11384097B2, “Tetrahydroisoquinoline derivative, preparation method therefor and use thereof” (ZHEJIANG HISUN PHARMACEUTICAL CO., LTD., priority 2018, dated 2022).
Read-outs that look alike come from different tables or passages of the source.

Assays:
Human AT2R = target: T1, Human AT2R (Homo sapiens, UniProt P50052); assay: Antagonistic activity assay on human AT2R ligand binding (Tag-lite HTRF, Tb-labeled-AT2R cells); settings: AT2 ligand binding, red agonist fluorescent ligand
T1 construct: Terbium (Tb) donor label on the receptor; From my own knowledge, the Tag-lite format usually uses an N-terminal SNAP-tag fusion labelled with Lumi4-Tb; expressed in transfected cells
T1 sequence (P50052 1-363): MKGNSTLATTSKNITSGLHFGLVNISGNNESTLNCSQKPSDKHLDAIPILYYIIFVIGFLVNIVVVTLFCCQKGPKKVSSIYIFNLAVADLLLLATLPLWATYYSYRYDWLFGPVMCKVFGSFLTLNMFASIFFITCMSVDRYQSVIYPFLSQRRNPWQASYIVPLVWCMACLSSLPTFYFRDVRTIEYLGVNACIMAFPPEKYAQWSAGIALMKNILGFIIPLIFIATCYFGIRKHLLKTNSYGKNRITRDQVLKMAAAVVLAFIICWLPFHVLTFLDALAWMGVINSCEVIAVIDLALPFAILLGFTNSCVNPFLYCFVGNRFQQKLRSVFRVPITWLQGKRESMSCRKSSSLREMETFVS

[1] = Pharmacokinetic study in SD rats (intravenous injection and intragastric administration); format: in vivo, Sprague Dawley (SD) rats; settings: for bioavailability / half-life / AUC(0-inf) / MRT / Cmax: male, Sprague-Dawley, rat, plasma; for bioavailability: Oral (10 mg/kg) vs Injection (1 mg/kg), read-out: Bioavailability F(%); for half-life: read-out: Half-life T1/2 (converted); for AUC(0-inf): read-out: area under curve AUC0-∞; for MRT: read-out: residence time MRT; for Cmax: read-out: blood concentration Cmax
Method: Test Example 3. Oral Pharmacokinetic Studies of the Compounds of the Present Disclosure in SD Rats
SD rats were used as the experimental animal. The rats were intravenously injected or intragastrically administered with the compounds of the present disclosure, and the drug concentrations in plasma at different times were tested by LC/MS/MS methods, so as to research the pharmacokinetic characteristics of compounds of present disclosure in rats.
Forty-eight healthy adult Sprague Dawley (SD) male rats were purchased from Weitong Lihua Laboratory Animal Technology Co., Ltd., production license number: 11400700271077.
48 healthy adult male SD rats were fasted overnight and administered via tail vein injection (at a dosage of 1 mg/kg) and intragastrically administered (at a dosage of 10 mg/kg), respectively. The rats were fed 4 h after the administration.
About 0.2 mL of blood was collected from the jugular vein before administering and at 0.083 hours, 0.25 hours, 0.5 hours, 1 hour, 2 hours, 4 hours, 8 hours, 12 hours, and 24 hours after administering, and heparin sodium was used for anticoagulation. Blood samples were collected and placed on ice, and plasma was separated by centrifugation (centrifugation conditions: 1500 g, 10 min). The collected plasma was stored at −40° C.-20° C. before analysis.
10 μL of plasma sample was taken and 400 μL of acetonitrile (containing internal standard working solution, comprising 5 ng/mL verapamil and 50 ng/mL glibenclamide) was added. The resulting mixture was vortexed for 10 minutes, and centrifuged at 3700 rpm for 10 minutes. 70 μL of the supernatant was taken, and […] of water was added. The resulting mixture was vortexed for 10 minutes, and 2 μL of the mixture was transferred to the LC-MS/MS for sample analysis.

[2] = Metabolic stability in rat liver microsomes; format: in vitro ADME; settings: for half-life at 1 µM: rat liver microsomes 0.5 mg/mL, 1 μM compound, NADPH 1 mM, read-out: Half-life/(T1/2, min)
Method: Test Example 2. Study on the Metabolic Stability of the Compound of the Present Disclosure in Rat Liver Microsomes
The purpose of this experiment is to study the metabolic stability of the compounds of the present disclosure in rat liver microsomes.
The compounds were incubated with rat liver microsomes and coenzyme NADPH was added to initiate the reaction. At 0, 5, 15, 30 and 60 minutes, 20 μL of incubation solution was taken out and transferred to 200 μL of acetonitrile containing internal standard to stop the reaction. After protein precipitation, the resulting mixture was centrifuged at 3,700 rpm for 10 minutes, and the supernatant was taken. The supernatant was diluted 1:1 with water and analyzed by LC-MS/MS method. According to the elimination half-life of the test compound in the incubation system, the in vitro intrinsic clearance rate was calculated. Midazolam was used as the internal reference compound and all incubations were performed in duplicate in parallel.
The peak area ratio analyte/internal standard (Aanalyte/AIS) is obtained by the instrument, and the remaining percentage (% Control) is calculated from the ratio Aanalyte/AIS in the non-zero time point sample to the zero time point sample. Ln (% Control) against incubation time is plotted and a linear fit was performed.

[3] = iv, Injection (1 mg/kg), tail vein

half-life ([1]; Oral (10 mg/kg))	AUC(0-inf) ([1]; Oral (10 mg/kg))	MRT ([1]; Oral (10 mg/kg))	AUC(0-inf) [1, 3]	MRT [1, 3]	half-life at 1 µM [2]	SMILES	IC50 (Human AT2R)	further results
–	–	–	–	–	–	COc1ccc2c(c1OCc1ccc(C(F)(F)F)cc1)C[C@@H](C(=O)O)N(c1nc3ccc(F)cc3o1)C2 [Example 38, (S)-2-(6-fluorobenzo[d]oxazol-2-yl)-6-methoxy-5-((4-(trifluoromethyl)benzyl)oxy)-1,2,3,4-tetrahydroisoquinoline-3-carboxylic acid]	11 nM	–
–	–	–	–	–	–	COc1ccc2c(c1OCc1ccccc1)C[C@@H](C(=O)NS(C)(=O)=O)N(c1nc3ccc(F)cc3o1)C2 [Example 26, (S)-5-(Benzyloxy)-2-(6-fluorobenzo[d]oxazol-2-yl)-6-methoxy-N-(methylsulfonyl)-1,2,3,4-tetrahydroisoquinoline-3-carboxamide]	37 nM	–
–	–	–	–	–	164 min	COc1ccc2c(c1OCc1ccc(F)cc1)C[C@@H](C(=O)O)N(c1nc3ccc(F)cc3o1)C2 [Example 29, (S)-2-(6-fluorobenzo[d]oxazol-2-yl)-5-((4-fluorobenzyl)oxy)-6-methoxy-1,2,3,4-tetrahydroisoquinoline-3-carboxylic acid]	–	–
–	–	–	–	–	–	COc1ccc(COc2c(OC)ccc3c2C[C@@H](C(=O)O)N(c2nc4ccc(C#N)cc4o2)C3)nc1 [Example 44, (S)-2-(6-cyanobenzo[d]oxazol-2-yl)-6-methoxy-5-((5-methoxypyridin-2-yl)methoxy)-1,2,3,4-tetrahydroisoquinoline-3-carboxylic acid]	33 nM	–
–	–	–	–	–	–	CCS(=O)(=O)NC(=O)[C@@H]1Cc2c(ccc(OC)c2OCc2ccc(OC)cc2)CN1c1nc2ccc(F)cc2o1 [Example 45, (S)—N-(ethylsulfonyl)-2-(6-fluorobenzo[d]oxazol-2-yl)-6-methoxy-5-((4-methoxybenzyl)oxy)-1,2,3,4-tetrahydroisoquinoline-3-carboxamide]	6 nM	–
–	–	–	–	–	–	COc1ccc2c(c1COc1ccccc1)C[C@@H](C(=O)NS(=O)(=O)N(C)C)N(c1nc3ccc(F)cc3o1)C2 [Example 20, (S)—N—(N,N-dimethylaminosulfonyl)-2-(6-fluorobenzo[d]oxazol-2-yl)-6-methoxy-5-(phenoxymethyl)-1,2,3,4-tetrahydroisoquinoline-3-carboxamide]	26 nM	–
3.6 ± 0.3 h	15.3 ± 2.26 µg·h/mL	4.3 ± 0.6 h	3.38 ± 0.405 µg·h/mL	1.9 ± 0.3 h	845 min	COc1ccc(COc2c(OC)ccc3c2C[C@@H](C(=O)O)N(c2nc4ccc(F)cc4o2)C3)cn1 [Example 39, (S)-2-(6-fluorobenzo[d]oxazol-2-yl)-6-methoxy-5-((6-methoxypyridin-3-yl)methoxy)-1,2,3,4-tetrahydroisoquinoline-3-carboxylic acid]	–	Half-life T1/2 ([1]; Injection (1 mg/kg), tail vein): 2.3 ± 0.4 h; bioavailability [1]: 45.3%
–	–	–	–	–	–	COc1ccc(COc2c(OC)ccc3c2C[C@@H](C(=O)NS(=O)(=O)N(C)C)N(c2nc4ccc(F)cc4o2)C3)cc1 [Example 46]	5 nM	–
3.9 ± 0.8 h	35.7 ± 6.09 µg·h/mL	3.7 ± 0.8 h	8.02 ± 0.635 µg·h/mL	1.2 ± 0.3 h	–	COc1ccc2c(c1OCc1ccccc1)C[C@@H](C(=O)O)N(c1nc3ccncc3o1)C2 [Example 22, (S)-5-(benzyloxy)-6-methoxy-2-(oxazolo[5,4-c]pyridin-2-yl)-1,2,3,4-tetrahydroisoquinoline-3-carboxylic acid]	–	bioavailability [1]: 44.6%; Cmax ([1]; Oral (10 mg/kg)): 15.9 ± 11 µg/mL; half-life [1, 3]: 2 ± 0.6 h; remaining original drug after incubation in rat liver microsomes ([2]; rat liver microsomes, 60 minutes): ~100%
1.5 ± 0.3 h	1.48 ± 0.715 µg·h/mL	2.6 ± 1 h	1.23 ± 0.096 µg·h/mL	0.92 ± 0.16 h	96.3 min	COc1ccc2c(c1OCc1ccccc1)C[C@@H](C(=O)O)N(C(=O)C(c1ccccc1)c1ccccc1)C2 [olodanrigan, reference compound]	–	bioavailability [1]: 12.1%; Cmax ([1]; Oral (10 mg/kg)): 0.47 ± 0.197 µg/mL; half-life [1, 3]: 1.6 ± 0.3 h
3.6 ± 0.2 h	29.6 ± 4.67 µg·h/mL	5.3 ± 0.4 h	8.23 ± 1.09 µg·h/mL	1.9 ± 0.4 h	233 min	COc1ccc2c(c1OCc1ccccc1)C[C@@H](C(=O)O)N(c1nc3ccc(F)cc3o1)C2 [Example 14, (S)-5-(Benzyloxy)-2-(6-fluorobenzo[d]oxazol-2-yl)-6-methoxy-1,2,3,4-tetrahydroisoquinoline-3-carboxylic acid]	–	–
–	–	–	–	–	–	COc1ccc(COc2c(OC)ccc3c2C[C@@H](C(=O)O)N(c2nc4ccc(C#N)cc4o2)C3)cn1 [Example 43, (S)-2-(6-cyanobenzo[d]oxazol-2-yl)-6-methoxy-5-((6-methoxypyridin-3-yl)methoxy)-1,2,3,4-tetrahydroisoquinoline-3-carboxylic acid]	33 nM	–
2.1 ± 1.6 h	18.1 ± 5.4 µg·h/mL	2.2 ± 0.8 h	2.55 ± 0.72 µg·h/mL	1.3 ± 0.2 h	–	COc1ccc2c(c1OCc1ccccc1)CC(C(=O)NS(=O)(=O)N(C)C)N(c1nc3ccccc3o1)C2 (stereo not drawn) [Example 9, 2-(Benzo[d]oxazol-2-yl)-5-(benzyloxy)-N—(N,N-dimethylsulfonyl)-6-methoxy-1,2,3,4-tetrahydroisoquinoline-3-carboxamide]	–	bioavailability [1]: 71.1%; Cmax ([1]; Oral (10 mg/kg)): 9.47 ± 5.89 µg/mL; half-life [1, 3]: 1.3 ± 0.1 h
–	–	–	–	–	–	COc1ccc2c(c1COc1ccccc1)C[C@@H](C(=O)NS(=O)(=O)C1CC1)N(c1nc3ccc(F)cc3o1)C2 [Example 21, (S)—N-(cyclopropylsulfonyl)-2-(6-fluorobenzo[d]oxazol-2-yl)-6-methoxy-5-(phenoxymethyl)-1,2,3,4-tetrahydroisoquinoline-3-carboxamide]	36 nM	–
–	–	–	–	–	–	COc1ccc2c(c1OCc1ccccc1)C[C@@H](C(=O)O)N(c1nc3ccc(Cl)cc3o1)C2 [Example 16, (S)-5-(benzyloxy)-2-(6-chlorobenzo[d]oxazol-2-yl)-6-methoxy-1,2,3,4-tetrahydroisoquinoline-3-carboxylic acid]	36 nM	–

SMILES	half-life ([1]; Oral (10 mg/kg))	AUC(0-inf) ([1]; Oral (10 mg/kg))	MRT ([1]; Oral (10 mg/kg))	AUC(0-inf) [1, 3]	MRT [1, 3]	half-life at 1 µM [2]	IC50 (Human AT2R)	further results
COc1ccc(COc2c(OC)ccc3c2C[C@@H](C(=O)O)N(c2nc4ccc(F)cc4o2)C3)cc1 [Example 30, (S)-2-(6-fluorobenzo[d]oxazol-2-yl)-6-methoxy-5-((4-methoxybenzyl)oxy)-1,2,3,4-tetrahydroisoquinoline-3-carboxylic acid]	3.3 ± 0.5 h	7.13 ± 1.63 µg·h/mL	3.6 ± 0.4 h	3.23 ± 0.659 µg·h/mL	1.2 ± 0.4 h	251 min	4 nM	Half-life T1/2 ([1]; Injection (1 mg/kg), tail vein): 2.4 ± 0.8 h; bioavailability [1]: 22.1%
CCS(=O)(=O)NC(=O)[C@@H]1Cc2c(ccc(OC)c2COc2ccccc2)CN1c1nc2ccc(F)cc2o1 [Example 19, (S)—N-(ethylsulfonyl)-2-(6-fluorobenzo[d]oxazol-2-yl)-6-methoxy-5-(phenoxymethyl)-1,2,3,4-tetrahydroisoquinoline-3-carboxamide]	–	–	–	–	–	175 min	25 nM	–
COc1ccc(COc2c(OC)ccc3c2C[C@@H](C(=O)O)N(c2nc4ccc(C#N)cc4o2)C3)cc1 [Example 42, (S)-2-(6-cyanobenzo[d]oxazol-2-yl)-6-methoxy-5-((4-methoxybenzyl)oxy)-1,2,3,4-tetrahydroisoquinoline-3-carboxylic acid]	–	–	–	–	–	451 min	6 nM	–
